Results: PubChem BioAssay (NCI)
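Test compounds were applied to cells in 96-well plates for 48 hours at 5 doses. TGI: concentration producing complete growth inhibition.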

Experiments:
Experiment in all cases: inhibition of tumour cell growth, NCI panel, 48 h
A549 NSCLC = test system: A549 NSCLC
ACHN renal = test system: ACHN renal
DU-145 prostate = test system: DU-145 prostate
HL-60(TB) leukemia = test system: HL-60(TB) leukemia
HOP-62 NSCLC = test system: HOP-62 NSCLC
HOP-92 NSCLC = test system: HOP-92 NSCLC
MOLT-4 leukemia = test system: MOLT-4 leukemia
NCI-H460 lung = test system: NCI-H460 lung
NCI-H522 lung = test system: NCI-H522 lung
PC-3 prostate = test system: PC-3 prostate
RPMI-8226 leukemia = test system: RPMI-8226 leukemia
SK-MEL-28 melanoma = test system: SK-MEL-28 melanoma
SK-OV-3 ovarian = test system: SK-OV-3 ovarian
SN12C renal = test system: SN12C renal
SNB-75 CNS = test system: SNB-75 CNS
SW-620 colon = test system: SW-620 colon
UO-31 renal = test system: UO-31 renal
SR leukemia = test system: SR leukemia

Row | SMILES | TGI (A549 NSCLC) [µM] | TGI (ACHN renal) [µM] | TGI (DU-145 prostate) [µM] | TGI (HL-60(TB) leukemia) [µM] | TGI (HOP-62 NSCLC) [µM] | TGI (HOP-92 NSCLC) [µM] | TGI (MOLT-4 leukemia) [µM] | TGI (NCI-H460 lung) [µM] | TGI (NCI-H522 lung) [µM] | TGI (PC-3 prostate) [µM] | TGI (RPMI-8226 leukemia) [µM] | TGI (SK-MEL-28 melanoma) [µM] | TGI (SK-OV-3 ovarian) [µM] | TGI (SN12C renal) [µM] | TGI (SNB-75 CNS) [µM] | TGI (SW-620 colon) [µM] | TGI (UO-31 renal) [µM] | TGI (SR leukemia) [µM]
1 | O=c1c2c(c1=O)C1(SCCCS1)c1cc(Cl)ccc1O2 | > 100 | > 100 | > 100 | > 100 | > 100 | > 100 | > 100 | > 100 | > 100 | > 100 | > 100 | > 100 | > 100 | > 100 | > 100 | > 100 | > 100 | –
2 | CSc1nc(-c2ccc(C)cc2)c(C#N)c(=O)[nH]1 | > 100 | > 100 | > 100 | > 100 | > 100 | > 100 | > 100 | > 100 | > 100 | > 100 | > 100 | > 100 | > 100 | > 100 | > 100 | > 100 | > 100 | –
3 | COc1cc2nc(-c3cccs3)nc(N3C(c4ccc(O)cc4)=NNC(=O)c4ccccc43)c2cc1OC | > 100 | 55 | > 100 | – | > 100 | – | – | 82.1 | > 100 | 67.9 | 47.9 | > 100 | > 100 | 50.2 | 64 | 79.8 | 37.4 | –
4 | COC(=O)C1CC=C(SC(=O)c2ccccc2)N1C(=O)c1ccccc1 (centres undefined) | > 100 | > 100 | > 100 | – | > 100 | > 100 | > 100 | > 100 | > 100 | > 100 | > 100 | > 100 | > 100 | – | > 100 | > 100 | > 100 | –
5 | CCN(CC)c1ccc(C2SCC(=O)N2c2ccc(NC(=O)c3ccc(N4C(=O)CSC4c4ccc(N(CC)CC)cc4)cc3)cc2)cc1 (centres undefined) | > 100 | > 100 | > 100 | – | > 100 | > 100 | > 100 | > 100 | > 100 | > 100 | – | > 100 | > 100 | > 100 | > 100 | > 100 | > 100 | –
6 | CCN1CN(c2ccccc2)C2(CCN(CCCSc3ccc(F)cc3)CC2)C1=O | 21.2 | 24.1 | 17.9 | 26.6 | 12.6 | – | 23.7 | – | 30 | 28.1 | 46.8 | 31 | 33.2 | 20.5 | 30.1 | 26.1 | 18.1 | 36.5
7 | Cc1cc(OCc2nn(CN3CCN(C)CC3)c(=S)n2/N=C/c2ccc(-c3ccc(Cl)cc3Cl)o2)ccc1Cl | – | > 100 | > 100 | 52.6 | > 100 | 95.9 | > 100 | > 100 | 59 | > 100 | > 100 | > 100 | > 100 | – | – | 51 | > 100 | –
8 | CCCCn1cnnc1NS(=O)(=O)c1cc(C)c(Cl)cc1SCC(=O)O | > 10 | > 10 | > 10 | > 10 | > 10 | – | > 10 | > 10 | > 10 | > 10 | > 10 | > 10 | > 10 | > 10 | > 10 | > 10 | > 10 | –
9 | CCCCNc1c(CN)cnc2cc(Cl)ccc12 | 41.5 | 58.7 | 86.8 | 3.92 | 35.4 | 35.1 | 36.5 | 25.8 | 34.5 | 43.1 | 37 | 30 | 31.6 | 37.9 | 42.3 | 33.5 | – | –
10 | O=C1c2cc3c(cc2CC12Cc1cc4c(cc1C2=O)CCC4)CCC3 | > 100 | > 100 | > 100 | > 100 | > 100 | – | > 100 | > 100 | > 100 | > 100 | > 100 | > 100 | > 100 | > 100 | > 100 | > 100 | > 100 | > 100
11 | CC(C)C1OC2(C)OC(=N)C1(C#N)C(C#N)(C#N)C2C (centres undefined) | > 100 | > 100 | > 100 | 37 | – | 34.7 | > 100 | 33.8 | – | > 100 | – | > 100 | > 100 | 26.8 | > 100 | 80.5 | > 100 | –
12 | CC(C)(C)[Si](C)(C)OCC1OC(n2ccc(=O)[nH]c2=O)C(O[Si](C)(C)C(C)(C)C)[C@@]12O[C@H]2C(N)=O (some centres undefined) | 25.9 | 16.5 | 17.6 | > 100 | 26.8 | – | > 100 | 20.4 | 7.35 | 17.8 | > 100 | > 100 | 36.6 | 30.3 | 24.7 | 42.5 | 19.6 | –
13 | COc1ccc(C(=O)/C=C/c2ccc(OCCSCCCCCCCCCCSCCOc3ccc(/C=C/C(=O)c4ccc(OC)cc4)cc3)cc2)cc1 | > 100 | > 100 | > 100 | > 100 | > 100 | – | > 100 | > 100 | – | > 100 | > 100 | > 100 | > 100 | > 100 | > 100 | > 100 | > 100 | > 100
14 | Cc1nc(Nc2ccc(F)cc2)c2sc(=S)n(-c3ccc(F)cc3)c2n1 | 29.5 | 27 | 26.2 | 74.1 | 24.1 | – | – | 28.8 | 30.1 | 35.6 | 21.9 | 27.8 | 40.2 | 27 | 29.6 | 21.4 | 30.1 | > 100
